Results from the NIST ThermoML archive (doi:10.1021/je700100a).
± gives the expanded uncertainty stated by the source.

Assay: mn = molality of the nth substance listed, in mol/kg
Details: 101 kPa, Liquid, Buoyancy - hydrostatic balance with magnetic suspension - one sinker

## [Cl-].[K+] [potassium chloride] + O
298.15 K, m1 = 0.0306
  mass density: 998.491 ± 0.41 kg/m3
303.15 K, m1 = 0.0105
  mass density: 996.131 ± 0.41 kg/m3
303.15 K, m1 = 0.02061
  mass density: 996.605 ± 0.41 kg/m3
